For one series, the target named is B-amyloid (Homo sapiens, UniProt P05067). The experiment in a line: KD of potent B-amyloid aggregation inhibitors (Table II). Type of series: binding.
The conditions of series [1]: rat, in vivo.
The conditions of series [2]: rat, in vivo. This is another data set of the same source.
For series [3] the following is noted: rat, in vivo. This is another data set of the same source.
From the text: The perfused, ipsilateral, left forebrain (choroid plexus removed) was subjected to capillary depletion (as described by Triguero et al., 1990) so as to produce brain supernatant that was void of blood vessels (as determined by alkaline phosphatase measurements).
The conditions of series [4]: in vivo.
Series [5] can be described thus: Biodistribution of 3H-PPI-558 +/- cyclosporin A (experiment 4, Table III). The settings on record: for Kidney (expressed as % administered): rat, sac t = 61 min.
Series [6] in a line: in vivo.
For series [7] the following is noted: rat, in vivo. The source holds these as a separate data set.
The conditions of series [8]: rat, in vivo. This is another data set of the same source.
Method: (§1) The drug cocktail was infused (100 μL/h) via a cannula in the external carotid artery so that the infusate was picked up by the blood and carried directly to the Circle of Willis/brain (via the left internal carotid artery, PTA occluded). At 30 minutes post cessation of the 10 minute IA infusion the left side of the brain was voided of blood by manually infusing 1 ml of saline via the cannula in the external carotid artery with the common carotid artery now ligated. The perfused left forebrain (choroid plexus removed) was subjected to capillary depiction (as described by Triguero et al., 1990) so as to produce brain supernatant that was void of blood vessels (as determined by alkaline phosphatase measurements).
The nature of series [9]: in vivo. The settings on record: male, Sprague-Dawley, rat.
Method: as §1

≈ marks a conversion by molar mass, not a printed value. Where “and” joins values, the source holds several entries; their conditions need not be identical. Equal entries are not always repeated. Where two headings read alike, the source gives them in different places. Non-standard residues stand in square brackets, D forms with d. Residues, ends and D or L forms follow the SMILES beside them. *: point of attachment. X1 = CC(C)C[C@H](C(=O)*)N(C)C

The solubility is the dissolved amount per volume that the medium holds. A higher solubility goes with a readily soluble substance. As usually defined, the Kd is the concentration at which binding is half-saturated. High values mean a looser complex, low ones a tighter complex.

Chain of B-amyloid (P05067 672-711 limits assumed): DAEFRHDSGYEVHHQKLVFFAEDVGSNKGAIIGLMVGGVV

In “physchem”, `CC(C)C[C@@H](N)C(=O)N[C@@H](C(=O)N[C@H](Cc1ccccc1)C(=O)N[C@H](Cc1ccccc1)C(=O)N[C@@H](C(N)=O)C(C)C)C(C)C` [PPI-657, H-D-Leu-D-Val-D-Phe-D-Phe-D-Val-NH2] (H-[dL][dV][dF][dF][dV]-NH2) yielded a solubility of 970 µg/mL (≈ 1560 µM). For the same molecule, on B-amyloid, the Kd is 0.33 nM.

For the molecule `CC(C)C[C@@H](N)C(=O)N[C@@H](C(=O)N[C@H](Cc1ccccc1)C(=O)N[C@H](Cc1ccccc1)C(=O)N[C@H](C)C(N)=O)C(C)C` [PPI-465, H-lvffa-NH2], the concentration in solution in the series “physchem” (solubility) came to 1490 µg/mL (≈ 2510 µM). Besides, on B-amyloid, the Kd is 0.92 nM.

In the series “physchem”, `CN[C@H](CC(C)C)C(=O)N[C@@H](C(=O)N[C@H](Cc1ccccc1)C(=O)N[C@H](Cc1ccccc1)C(=O)N[C@H](CC(C)C)C(N)=O)C(C)C` [PPI-1019, N-methyl-(D-Leu-D-Val-D-Phe-D-Phe-D-Leu)-NH2] had a solubility of 1000 µg/mL (≈ 1540 µM). For the same molecule, in [1], the “levels within the liver in the presence of cyclosporin A” value is reported as “decreased levels”. The “plasma levels in the presence of cyclosporin A” value in [2] is “elevated”. Besides, in series [3], the “elevation of brain levels in the presence of cyclosporin A” value is reported as 5 fold.

As to `CC(C)C[C@@H](N)C(=O)N[C@H](Cc1ccccc1)C(=O)N[C@H](Cc1ccccc1)C(=O)N[C@@H](C(=O)N[C@H](CC(C)C)C(N)=O)C(C)C` [PPI-578, H-lffvl-NH2], the solubility in the series “physchem” was 2500 µg/mL (≈ 3930 µM). On B-amyloid, this molecule showed a Kd of 0.29 nM.

In the series “physchem”, `CC(C)C[C@H](C(=O)N[C@@H](C(=O)N[C@H](Cc1ccccc1)C(=O)N[C@H](Cc1ccccc1)C(=O)N[C@H](CC(C)C)C(N)=O)C(C)C)N(C)C` [PPI-1007, (CH3)2-lvffl-NH2] (X1-[dV][dF][dF][dL]-NH2) came in with a solubility of 180 µg/mL (≈ 271 µM).

`CC(C)C[C@@H](NC(=O)c1ccc(O)cc1)C(=O)N[C@@H](C(=O)N[C@H](Cc1ccccc1)C(=O)N[C@H](Cc1ccccc1)C(=O)N[C@H](C)C(N)=O)C(C)C` [PPI-558, 4-Hydroxybenzoyl-D-Leu-D-Val-D-Phe-D-Phe-D-Ala-NH2] gave a solubility in “physchem” of 1 µg/mL (≈ 1.4 µM). Besides, in [4], the capillary bound level result is “very low levels”. Further, in series [5] (PPI-558/DMPC (1:30) approx. 3 mg/kg IV, without cyclosporin A, MEAN), the “Kidney (expressed as % administered)” value is listed as 0.95 % administered. The “Kidney (expressed as % administered)” value in series [5] (PPI-558/DMPC (1:30) approx. 3 mg/kg IV, without cyclosporin A, single animals) was 0.7 % administered and 1.7 % administered and 0.5 % administered. Further, in [5] (cyclosporin A 50 mg/kg IV + PPI-558/DMPC (1:30), MEAN), the “Kidney (expressed as % administered)” value amounted to 2.59 % administered. The “Kidney (expressed as % administered)” value in series [5] (cyclosporin A 50 mg/kg IV + PPI-558/DMPC (1:30), single animals, 50 mg/kg) was 2.5 % administered and 2.7 % administered. Besides, the “Kidney FOLD INCREASE” value in [5] (with cyclosporin A versus without) is 3 fold. This molecule also returned a level at time molar in “in vivo [6]” below 5 nM. The “plasma levels in the presence of cyclosporin A” value in series [2] is listed as “elevated”. Also, in series [7], the “Cartass FOLD INCREASE” value is 4 fold, the “Colon FOLD INCREASE” value was 4 fold, the “Duodenum FOLD INCREASE” value is 6 fold and the “Fat FOLD INCREASE” value is on record as 2 fold. Moreover, in [7], the “Heart FOLD INCREASE” value is reported as 3 fold, the “Ileum FOLD INCREASE” value is reported as 2 fold, the “Liver FOLD INCREASE” value was 0.4 fold and the “Lung FOLD INCREASE” value is listed as 1 fold. Moreover, in [7], the “Muscle FOLD INCREASE” value is recorded as 5 fold, the “Pancreas FOLD INCREASE” value turned out to be 7 fold, the “Spleen FOLD INCREASE” value came out at 1 fold and the “Tongue FOLD INCREASE” value is listed as 5 fold. In series [7], the “Urine FOLD INCREASE” value was found to be 1 fold, the “blood at sac FOLD INCREASE” value is recorded as 6 fold and the “levels within the small intestine in the presence of cyclosporin A” value is given as “higher levels”. Also, in [8], the capillary bound level entry is “approx. 250 nM equiv”. In series [3], the “elevation of brain levels in the presence of cyclosporin A” value was 10 fold. Further, the level at time molar at 0.5 h in the series “in vivo [9]” is above 100 nM.

On to `CC(C)C[C@@H](N)C(=O)N[C@@H](C(=O)N[C@H](Cc1ccccc1)C(=O)NNC(=O)[C@@H](Cc1ccccc1)NC(=O)[C@H](NC(=O)[C@H](N)CC(C)C)C(C)C)C(C)C` [PPI-1125, (H-lvf-NH-)2], for which the concentration in solution in the series “physchem” (solubility) came to 5000 µg/mL (≈ 6660 µM).

Values taken from US20050288222A1, “Methods for enhancing the bioavailability of a drug” (priority 2000, published 2005).
